B1: alpha2 -antiplasmin: specific plasmin inhibitor (protein, UniProt P08697 40-491, looked up)
Alpha-2-antiplasmin: NQEQVSPLTLLKLGNQEPGGQTALKSPPGVCSRDPTPEQTHRLARAMMAFTADLFSLVAQTSTCPNLILSPLSVALALSHLALGAQNHTLQRLQQVLHAGSGPCLPHLLSRLCQDLGPGAFRLAARMYLQKGFPIKEDFLEQSEQLFGAKPVSLTGKQEDDLANINQWVKEATEGKIQEFLSGLPEDTVLLLLNAIHFQGFWRNKFDPSLTQRDSFHLDEQFTVPVEMMQARTYPLRWFLLEQPEIQVAHFPFKNNMSFVVLVPTHFEWNVSQVLANLSWDTLHPPLVWERPTKVRLPKLYLKHQMDLVATLSQLGLQELFQAPDLRGISEQSLVVSGVQHQSTLELSEVGVEAAAATSIAMSRMSLSSFSVNRPFLFFIFEDTTGLPLFVGSVRNPNPSAPRELKEQQDSPGNKDFLQSLKGFPRGDKLFGPDLKLVPPMEEDYPQFGSPK

What was measured:
PAI/u-PA complex = experiment: Comparison Experiment 3: stability of the PAI/u-PA complex against chloramine T; assay type: biochemical
Description: (§1) 50 μl of various samples, namely either basic buffer A (1) or PAI-deficient plasma (2) and PAI-rich plasma (3) 20 were incubated with 200 μl of solution C (plasminogen activator reagent) at 23° C. for 10 min. After addition of 500 μl of solution A (basic buffer), 50 μl of chloramine T of various concentrations, 300 μl of solution E (plasmin substrate reagent) and 100 μl of solution F (plasminogen reagent), the mixtures were incubated at 37° C. for 15 min. Substrate conversion was stopped by addition of 100 μl of 8.5 M acetic acid, and the extinction at 405 nm was determined. The oxidizing agent chloramine T used in this experiment was employed in solutions of the following concentrations.

urokinase = experiment: Comparison Experiment 3: stability of urokinase against chloramine T in the pure buffer system; assay type: biochemical
Description: as §1

u-PA/PAI complexes = experiment: Comparison Experiments 5 and 7: stability of u-PA/PAI complexes in the functional PAI determination; assay type: biochemical; conditions: in the reaction mixture; Comparison Experiment 5
Description: (§2) Preincubation of 50 μl of sample with 200 μl of a variant of solution C (plasminogen activator dissolved in basic buffer U) at 37° C. for five minutes was followed by addition of 200 μl of a variant of plasminogen reagent (F), composed of 100 mM Tris-HCl pH 8.4, crosslinked polypeptides 1%, ^R Triton×100 0.1%, 100 mM NaCl without tran-examic acid, NaN3 0.01 % (basic buffer U) with 10 CTA-U/ml plasminogen and 200 μl of distilled water with 10 mM chloramine T, 3 mM tranexamic acid to the reaction mixture. The mixture was incubated at 37° C. for 5 min, and 500 μl of 0.6 mM chromogenic plasmin substrate HD-Nva-CHA-Lys-pNA in 480 mM NaCl (or, as a substitute, 200 mM CsCl) were added. The resultant linear change in extinction, delta A/min, at 405 nm was followed. The values found for normal plasma were about 0.2/min.
The chloramine T concentrations added in the determination method specified in Example 3 were varied from 0 to 9 mmol/1 of reaction mixture. The assayed samples were either a) deficient in functional PAI (=PAI-deficientplasma) or b) rich in functional PAI. An optimum of generated plasmin activity is found on addition of between 1 and 4 mmol/1 chloramine T. The two plasma plots are parallel throughout the range, i.e. u-PA/PAI complexes are stable up to at least 9 mM chloramine T in the reaction mixture (=650 1). […]

plasmin [1] = experiment: Comparison Experiment 11: effect of chloramine T and/or tranexamic acid on plasmin activity in the functional PAI assay; assay type: biochemical; conditions: for delta A/4 min: 405 nm
Description: as §2, with “followed.” for “followed. The values found for normal plasma were about 0.2/min.”

[2] = test system: antithrombin III (AT III); experiment: Comparison Experiment 13: oxidative inactivation of antithrombin III; assay type: biochemical; conditions: 37° C., 15 min preincubation, pH 8.8
Description: 50 pmol of AT III in 50 μl of 50 mM Tris, 100 mM NaCl, 0.1% (w/v) Triton×100, pH 8.8 buffer, are preincubated with increasing quantities of chloramine T or hydrogen peroxide in 50 μl of distilled water at 37° C. for 15 min. Then 3 pmol of human alpha-thrombin, 2.5 IU of heparin and 2 KIU of aprotinin in 500 μl of 100 mM Tris, 150 mM NaCl, pH 8.2, are added, and the mixture is incubated at 37° C. for 5 min. Addition of 500 μl of 0.4 mM H-D-CHA-But-ArgpNA was followed by further incubation for 3 min (37° C.). The reaction was stopped by 100 μl of 8.5 M acetic acid, and the change in extinction at 405 nm was determined.

human alpha-thrombin = experiment: Comparison Experiment 13: oxidation resistance of thrombin; assay type: biochemical; conditions: 500 nmol of chloramine T or 500 times the dose of H202
[3] = test system: Plasmin/antiplasmin complexes; experiment: Comparison Experiment 14b: stability of plasmin/antiplasmin complexes to chloramine T; assay type: biochemical; conditions: in the reaction mixture, 37° C., 30 min
Description: 30 pmol of alpha2 -antiplasmin and basic buffer A (control mixture) are incubated with 50 pmol of plasmin in 175 μl of basic buffer A for 5 min (37° C.). Addition of 500 μl of chloramine T of various concentrations in basic buffer A is followed by incubation for 30 min (37° C.), and the detection reaction is started by addition of 200 μl of 2.5 mM chromogenic plasmin substrate H-D-Phe-Tyr-Arg-ANBA in basic buffer A. After 3 min (37° C.), the reaction is stopped by addition of 100 μl of 8.5 M acetic acid, and the change in extinction at 405 nm is determined. No additional plasmin activity is generated even by chloramine T concentrations above 5 mM in the reaction mixture, that is to say plasmin/antiplasmin complexes are oxidation-resistant.

[4] = test system: plasminogen activator inhibitors; conditions: Lawrence and Loskutoff, Biochemistry 25, 6351-6355, 1986; cited from earlier work
plasmin [5] = experiment: Oxidative inactivation of alpha2-antiplasmin; assay type: biochemical
Excerpt: Accurate determination of the said proteins requires that specific and non-specific plasmin inhibitors be quantitatively inactivated. […] This effect corresponds to expectations inasmuch as the plasminogen activator inhibitors belong to the family of serine protease inhibitors (serpins) whose archetype, namely alpha1 -protease inhibitor, contains an oxidizable methionine in the active center. Oxidation of this methionine results in a methionine sulfoxide, and the inhibitory functions are lost with the formation thereof. Lawrence and Loskutoff show, both for alpha1 -protease inhibitor and for plasminogen activator inhibitor, that the inactivation is reversible by treatment with dithiothreitol and methionine-sulfoxide-peptide reductase, i.e. under the conditions described therein the plasminogen activator inhibitor is demonstrably inactivated by oxidation. It was all the less to be expected that the complexes of plasminogen activator and plasminogen activator inhibitor produced in the reaction remain intact even under the oxidizing conditions according to the invention. […] Furthermore, it is very remarkable that the reaction of a non-inhibited plasminogen activator with its substrate, a natural or synthetic plasminogen, as well as the enzymatic reactions dependent thereon, take place undisturbed during the oxidation process.

plasmin [6] = conditions: Shieh and Travis, J.Biol.Chem. 262, 6055-6059, 1987; cited from earlier work

chloramine T concentration attacking urokinase (urokinase) [mM] | Molecule | chloramine T concentration at which the PAI/u-PA complex is stable (FIG. 3) (PAI/u-PA complex) | chloramine T concentration not resulting in cleavage of the PAI/u-PA complexes (PAI/u-PA complex; PAI-deficient vs PAI-rich plasma, in reaction mixture) | chloramine T concentration up to which u-PA/PAI complexes are stable (u-PA/PAI complexes) | increase in plasmin activity with alpha2-antiplasmin-deficient plasma compared with normal plasma (plasmin [1]) [%] | delta A/4 min (plasmin [1]; Normal plasma without alpha2-antiplasmin) [mA] | delta A/4 min (plasmin [1]; Normal plasma) [mA] | quantity of chloramine T inactivating 50 pmol of AT III [2] [nmol] | activity of thrombin at the dose inactivating AT III (human alpha-thrombin) | chloramine T concentration generating no additional plasmin activity [3] | concentration inactivating plasminogen activator inhibitors [4] | inactivation of alpha2-antiplasmin under the oxidizing conditions of the invention (plasmin [5]) | resistance of alpha2-antiplasmin to oxidation (plasmin [6])
1 | Cc1ccc(S(=O)(=O)NCl)cc1 [chloramine T, Chloramine T] | above 2 mmol/1 | above 2 mM | at least 9 mM | 20 | 271 | 225 | 500 | without the activity of thrombin being impaired | above 5 mM | about 10 μM |  | 
 | B1 |  |  |  |  |  |  |  |  |  |  | nearly completely inactivated | resistant to oxidation

Reference: patent US5057414A, “Method for the determination of the activity of serine proteases or serine protease inhibitors” (Behringwerke Aktiengesellschaft, priority 1987, dated 1991)
